Laboratory results from patent US7566712B2, “Biaryl piperazinyl-pyridine analogues” (Neurogen Corporation, priority 2003, dated 2009).

biological target: T1, human capsaicin receptor (Homo sapiens, UniProt Q8NER1); assay: Calcium mobilization assay, determination of antagonist activity (Example 6); assay type: cell-based; details: Table II; IC50 determined as described in Example 6 (antagonist activity, calcium mobilization)
T1 construct: pBK-CMV expression construct encoding the full length human capsaicin receptor; expressed in transfected cells
T1 sequence (Q8NER1 whole entry): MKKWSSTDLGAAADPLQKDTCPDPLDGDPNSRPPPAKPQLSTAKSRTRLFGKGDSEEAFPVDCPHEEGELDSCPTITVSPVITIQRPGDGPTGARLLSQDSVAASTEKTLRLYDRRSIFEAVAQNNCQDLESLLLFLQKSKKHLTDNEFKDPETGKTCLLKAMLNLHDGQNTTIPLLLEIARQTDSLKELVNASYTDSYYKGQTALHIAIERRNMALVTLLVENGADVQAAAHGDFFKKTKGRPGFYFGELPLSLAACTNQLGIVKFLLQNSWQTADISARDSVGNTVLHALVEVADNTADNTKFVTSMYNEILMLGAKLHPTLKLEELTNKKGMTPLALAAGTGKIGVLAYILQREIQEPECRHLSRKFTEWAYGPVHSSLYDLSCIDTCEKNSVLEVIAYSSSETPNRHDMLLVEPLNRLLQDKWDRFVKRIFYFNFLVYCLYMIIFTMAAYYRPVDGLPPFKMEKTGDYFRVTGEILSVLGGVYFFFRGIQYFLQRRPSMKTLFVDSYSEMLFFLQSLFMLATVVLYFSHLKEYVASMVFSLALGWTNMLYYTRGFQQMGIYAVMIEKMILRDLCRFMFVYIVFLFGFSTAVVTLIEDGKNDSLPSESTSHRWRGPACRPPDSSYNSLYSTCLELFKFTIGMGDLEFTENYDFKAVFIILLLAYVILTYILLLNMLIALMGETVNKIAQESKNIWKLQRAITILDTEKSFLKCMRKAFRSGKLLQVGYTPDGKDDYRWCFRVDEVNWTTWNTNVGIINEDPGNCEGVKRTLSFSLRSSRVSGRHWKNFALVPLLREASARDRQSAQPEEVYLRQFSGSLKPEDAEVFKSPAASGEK
Summary of the method: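 HEK293 clonal lines stably expressing full-length human capsaicin receptor, loaded with Fluo-3 AM in KRH buffer pH 7.4, 1–2 h at 37 °C. Compounds (1–5 μM final) preincubated 0.5–6 h at room temperature, then capsaicin at its EC50 added. FLIPR/Fluoroskan calcium signal; IC50 as 50% decrease of capsaicin response.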

IC50, ≤ 1000 nM:
CC1CCCN1c1nc(-c2ccc(F)c(Cl)c2)cc(N2CCN(c3ncc(C#N)cn3)CC2)n1 (stereo not drawn) [Example 1009, 2-{4-[6-(3-chloro-4-fluorophenyl)-2-(2-methylpyrrolidin-1-yl)pyrimidin-4-yl]piperazin-1-yl}pyrimidine-5-carbonitrile]
CC1CCCN1c1nc(-c2ccc(F)c(Cl)c2)cc(N2CCN(c3ncncc3Cl)CC2)n1 (stereo not drawn) [Example 1010, 4-(3-chloro-4-fluorophenyl)-6-[4-(5-chloropyrimidin-4-yl)piperazin-1-yl]-2-(2-methylpyrrolidin-1-yl)pyrimidine]
CC1CCCN1c1nc(-c2ccc(F)cc2)cc(N2CCN(c3nc(Cl)ccc3Cl)C[C@H]2C)n1 (stereo partly drawn) [Example 1011, 4-[4-(3,6-dichloropyridin-2-yl)-2-methylpiperazin-1-yl]-6-(4-fluorophenyi)-2-(2-methylpyrrolidin-1-yl)pyrimidine]
CNc1ccc(Cl)c(N2CCN(c3cc(-c4ccc(F)cc4)nc(N4CCCC4C)n3)[C@H](C)C2)n1 (stereo partly drawn) [Example 1012, 5-chloro-6-{4-[6-(4-fiuorophenyl)-2-(2-methylpyrrolidin-1-yl)pyrimidin-4-yl]-3-methylpiperazin-1-yl}-N-methylpyridin-2-amine]
CC1CCCN1c1nc(-c2ccc(F)cc2)cc(N2CCN(c3ncncc3Cl)C[C@H]2C)n1 (stereo partly drawn) [Example 1013, 4-[(2R)-4-(5-chloropyrimidin-4-yl)-2-methylpiperazin-1-yl]-6-(4-fluorophenyl)-2-(2-methylpyrrolidin-1-yl)pyrimidine]
Cc1cccnc1N1CCN(c2cc(-c3ccc(F)c(Cl)c3)nc(N(C)[C@@H](C)CO)n2)CC1 [Example 1016, (2S)-2-[{4-(3-chloro-4-fluorophenyl)-6-[4-(3-methylpyridin-2-yl)piperazin-1-yl]pyrimidin-2-yl}(methyl)amino]propan-1-ol]
